Data published in PubChem BioAssay AID588488 (The Scripps Research Institute Molecular Screening Center, 2011).
Activity calls are given as the source filed them.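 How the source made its calls: active means inhibition of 50% or more in at least one of the four enzyme panels; inactive means below 50% inhibition in every panel.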

Each molecule was assayed against Protein-arginine deiminase type-4 (Homo sapiens) (UniProt Q9UM07) (assay: single-point PAD isozyme enzyme inhibition – biochemical, colorimetric, BAEE substrate, HTS hits, selectivity assay for PAD4 inhibitor project, late-stage follow-up (AID 588488)). Settings: Recombinant PAD1-4, BAEE citrulline colorimetric absorbance; PAD4; at 10 µM; stronger effect = higher value.
Chain of Protein-arginine deiminase type-4 (Homo sapiens) (Q9UM07 whole entry, looked up): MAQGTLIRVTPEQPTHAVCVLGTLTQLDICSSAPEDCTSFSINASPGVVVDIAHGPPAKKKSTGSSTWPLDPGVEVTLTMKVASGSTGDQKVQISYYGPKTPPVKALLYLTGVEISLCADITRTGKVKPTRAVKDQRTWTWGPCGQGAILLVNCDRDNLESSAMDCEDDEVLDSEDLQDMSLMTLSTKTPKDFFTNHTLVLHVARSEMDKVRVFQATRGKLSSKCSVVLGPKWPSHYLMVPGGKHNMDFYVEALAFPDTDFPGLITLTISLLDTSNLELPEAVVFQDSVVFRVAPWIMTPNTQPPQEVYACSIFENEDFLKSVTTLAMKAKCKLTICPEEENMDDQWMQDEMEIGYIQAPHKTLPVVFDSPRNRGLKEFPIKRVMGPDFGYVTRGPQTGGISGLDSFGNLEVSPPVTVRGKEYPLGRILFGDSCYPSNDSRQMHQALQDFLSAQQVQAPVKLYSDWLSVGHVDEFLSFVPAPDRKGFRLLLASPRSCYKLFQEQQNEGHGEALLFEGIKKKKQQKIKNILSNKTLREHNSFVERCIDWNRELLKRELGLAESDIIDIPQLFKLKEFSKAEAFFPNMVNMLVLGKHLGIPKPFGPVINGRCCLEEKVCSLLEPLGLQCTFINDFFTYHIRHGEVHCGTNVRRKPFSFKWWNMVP

inhibition, inactive:
COc1ccc(C2C(C#N)=C(N)N(N(C)C)C3=C2C(=O)CCC3)cc1 (configuration not stated) 21%, Cc1nonc1OC(C)CNc1ccc([N+](=O)[O-])cc1 (configuration not stated) 12%, COC(=O)c1cc(C)nc(Sc2ccccc2N)n1 6%, COc1ccc(-c2cc(=O)[nH][nH]2)cc1 20%, CC(NC(=O)Nc1ccc(O)cc1)(C(F)(F)F)C(F)(F)F 14%, Cc1cc(N(C)NC(=S)Nc2ccccc2)nc(C)n1 1%, CCOc1nc(Nc2ccc(OC)cc2OC)nc(OCC)n1 9%, Cn1c(=O)c2c(ncn2CC(=O)Nc2nc(-c3ccccc3Cl)cs2)n(C)c1=O 25%, CCN(CC)c1cccc(OC2=NS(=O)(=O)c3ccccc32)c1 16%, COc1cccc2cc(C(=O)NC3CC(C)(C)NC(C)(C)C3)c(=O)oc12 17%, O=C(NCC1CCCO1)c1cc2c([nH]c3ccccc32)c(-c2ccc(F)cc2)n1 (configuration not stated) -3%, Cc1nn(-c2ccccc2)c(C)c1NC(=O)COc1ccc(Cl)cc1Cl 16%, COc1cccc(NC(=O)C2c3cc(OC)c(OC)cc3C(=O)N(C)C2c2cccnc2)c1 (configuration not stated) 8%, S=C(NCc1ccco1)Nc1cccc(Cl)c1 11%, N#CCCN(C(=O)Cn1nc(C(=O)O)c2ccccc2c1=O)c1ccccc1 17%, Cc1nn(-c2cccc(Cl)c2)c2c1C(c1cccnc1)C(C#N)=C(N)O2 (configuration not stated) 1%, Cc1ccc(C2CC(=O)Oc3cc(O)ccc32)cc1 (configuration not stated) 12%, COc1cccc(/C=C2/CN(C)CC3=C2OC(N)=C(C#N)C3c2cccc(OC)c2)c1 (configuration not stated) 20%, Cc1ccc(CNC(=O)c2ccc(C)c(S(=O)(=O)N3CCCCC3)c2)cc1 13%, COc1cccc(NC(=O)CN(C)C(=O)C23CC4CC(CC(Cl)(C4)C2)C3)c1 26%, Cc1c(NC(=O)CSc2nccn2C)c(=O)n(-c2ccccc2)n1C 0%, COc1ccc(CCNC(=O)COC(=O)c2ccc(C)s2)cc1 3%, Cc1cc2ncn(-c3ncccc3[N+](=O)[O-])c2cc1C 24%, CN(C)CCN(Cc1ccccc1)c1ccccn1 6%, COc1ccc(S(=O)(=O)Nc2ccccc2C)cc1 18%, CN(C)CCCNc1cn[nH]c(=O)c1Cl 42%, CC(=O)N(Cc1cc(=O)[nH]c2ccccc12)c1cccc(C)c1 16%, O=c1cc(-c2ccc(Cl)cc2)[nH][nH]1 4%, Cc1c(C(=O)N2CCCCC2)c(S(=O)(=O)N2CCN(c3ccc(Cl)cc3)CC2)c(C)n1C 15%, N#CCCn1[nH]c(-c2ccccc2)cc1=O 28%, Cc1cc(-c2nnc(SCC(=O)Nc3ccc(F)c(F)c3)n2N)n[nH]1 -1%, CCN(CC)S(=O)(=O)c1ccc(N=NC2=C(O)CCCC2=O)cc1 10%, Cc1oc2c(C)c(O)ccc2c(=O)c1-c1ccc2ccccc2n1 18%

Each molecule was assayed against Protein-arginine deiminase type-3 (Homo sapiens) (UniProt Q9ULW8) in the same assay as above. Settings: Recombinant PAD1-4, BAEE citrulline colorimetric absorbance; PAD3; at 10 µM; stronger effect = higher value.
Chain of Protein-arginine deiminase type-3 (Homo sapiens) (Q9ULW8 whole entry, looked up): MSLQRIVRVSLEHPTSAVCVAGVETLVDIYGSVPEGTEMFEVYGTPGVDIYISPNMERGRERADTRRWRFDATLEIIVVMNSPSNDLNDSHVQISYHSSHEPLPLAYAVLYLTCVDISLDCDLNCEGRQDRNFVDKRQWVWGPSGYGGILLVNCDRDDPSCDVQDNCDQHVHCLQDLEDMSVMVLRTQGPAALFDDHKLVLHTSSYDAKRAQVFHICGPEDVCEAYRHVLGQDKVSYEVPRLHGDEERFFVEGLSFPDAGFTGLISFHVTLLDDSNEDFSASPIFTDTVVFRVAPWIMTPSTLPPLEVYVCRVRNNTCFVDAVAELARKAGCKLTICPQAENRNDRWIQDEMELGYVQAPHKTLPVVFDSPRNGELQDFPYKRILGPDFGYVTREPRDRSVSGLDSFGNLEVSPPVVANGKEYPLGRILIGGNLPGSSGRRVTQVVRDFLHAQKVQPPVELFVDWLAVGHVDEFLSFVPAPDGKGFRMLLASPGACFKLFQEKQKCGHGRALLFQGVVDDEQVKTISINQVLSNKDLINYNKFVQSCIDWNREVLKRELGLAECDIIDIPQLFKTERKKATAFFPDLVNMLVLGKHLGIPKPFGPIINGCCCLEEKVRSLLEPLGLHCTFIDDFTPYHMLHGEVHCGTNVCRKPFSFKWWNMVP

inhibition, inactive:
COc1ccc(C2C(C#N)=C(N)N(N(C)C)C3=C2C(=O)CCC3)cc1 (configuration not stated) -1%, Cc1nonc1OC(C)CNc1ccc([N+](=O)[O-])cc1 (configuration not stated) 7%, COC(=O)c1cc(C)nc(Sc2ccccc2N)n1 -14%, COc1ccc(-c2cc(=O)[nH][nH]2)cc1 3%, CC(NC(=O)Nc1ccc(O)cc1)(C(F)(F)F)C(F)(F)F -11%, Cc1cc(N(C)NC(=S)Nc2ccccc2)nc(C)n1 -6%, CCOc1nc(Nc2ccc(OC)cc2OC)nc(OCC)n1 -2%, Cn1c(=O)c2c(ncn2CC(=O)Nc2nc(-c3ccccc3Cl)cs2)n(C)c1=O 3%, CCN(CC)c1cccc(OC2=NS(=O)(=O)c3ccccc32)c1 6%, COc1cccc2cc(C(=O)NC3CC(C)(C)NC(C)(C)C3)c(=O)oc12 -2%, O=C(NCC1CCCO1)c1cc2c([nH]c3ccccc32)c(-c2ccc(F)cc2)n1 (configuration not stated) -2%, Cc1nn(-c2ccccc2)c(C)c1NC(=O)COc1ccc(Cl)cc1Cl -3%, COc1cccc(NC(=O)C2c3cc(OC)c(OC)cc3C(=O)N(C)C2c2cccnc2)c1 (configuration not stated) -3%, S=C(NCc1ccco1)Nc1cccc(Cl)c1 -2%, N#CCCN(C(=O)Cn1nc(C(=O)O)c2ccccc2c1=O)c1ccccc1 -12%, Cc1nn(-c2cccc(Cl)c2)c2c1C(c1cccnc1)C(C#N)=C(N)O2 (configuration not stated) -4%, Cc1ccc(C2CC(=O)Oc3cc(O)ccc32)cc1 (configuration not stated) -3%, COc1cccc(/C=C2/CN(C)CC3=C2OC(N)=C(C#N)C3c2cccc(OC)c2)c1 (configuration not stated) -20%, Cc1ccc(CNC(=O)c2ccc(C)c(S(=O)(=O)N3CCCCC3)c2)cc1 -2%, COc1cccc(NC(=O)CN(C)C(=O)C23CC4CC(CC(Cl)(C4)C2)C3)c1 -3%, Cc1c(NC(=O)CSc2nccn2C)c(=O)n(-c2ccccc2)n1C -18%, COc1ccc(CCNC(=O)COC(=O)c2ccc(C)s2)cc1 -24%, Cc1cc2ncn(-c3ncccc3[N+](=O)[O-])c2cc1C 8%, CN(C)CCN(Cc1ccccc1)c1ccccn1 -9%, COc1ccc(S(=O)(=O)Nc2ccccc2C)cc1 -3%, CN(C)CCCNc1cn[nH]c(=O)c1Cl 2%, CC(=O)N(Cc1cc(=O)[nH]c2ccccc12)c1cccc(C)c1 -3%, O=c1cc(-c2ccc(Cl)cc2)[nH][nH]1 -4%, Cc1c(C(=O)N2CCCCC2)c(S(=O)(=O)N2CCN(c3ccc(Cl)cc3)CC2)c(C)n1C -6%, N#CCCn1[nH]c(-c2ccccc2)cc1=O -12%, Cc1cc(-c2nnc(SCC(=O)Nc3ccc(F)c(F)c3)n2N)n[nH]1 -7%, CCN(CC)S(=O)(=O)c1ccc(N=NC2=C(O)CCCC2=O)cc1 17%, Cc1oc2c(C)c(O)ccc2c(=O)c1-c1ccc2ccccc2n1 -19%

The molecules below were run against Protein-arginine deiminase type-2 (Homo sapiens) (UniProt Q9Y2J8) in the same assay as above. Settings: Recombinant PAD1-4, BAEE citrulline colorimetric absorbance; PAD2; at 10 µM; stronger effect = higher value.
Chain of Protein-arginine deiminase type-2 (Homo sapiens) (Q9Y2J8 whole entry, looked up): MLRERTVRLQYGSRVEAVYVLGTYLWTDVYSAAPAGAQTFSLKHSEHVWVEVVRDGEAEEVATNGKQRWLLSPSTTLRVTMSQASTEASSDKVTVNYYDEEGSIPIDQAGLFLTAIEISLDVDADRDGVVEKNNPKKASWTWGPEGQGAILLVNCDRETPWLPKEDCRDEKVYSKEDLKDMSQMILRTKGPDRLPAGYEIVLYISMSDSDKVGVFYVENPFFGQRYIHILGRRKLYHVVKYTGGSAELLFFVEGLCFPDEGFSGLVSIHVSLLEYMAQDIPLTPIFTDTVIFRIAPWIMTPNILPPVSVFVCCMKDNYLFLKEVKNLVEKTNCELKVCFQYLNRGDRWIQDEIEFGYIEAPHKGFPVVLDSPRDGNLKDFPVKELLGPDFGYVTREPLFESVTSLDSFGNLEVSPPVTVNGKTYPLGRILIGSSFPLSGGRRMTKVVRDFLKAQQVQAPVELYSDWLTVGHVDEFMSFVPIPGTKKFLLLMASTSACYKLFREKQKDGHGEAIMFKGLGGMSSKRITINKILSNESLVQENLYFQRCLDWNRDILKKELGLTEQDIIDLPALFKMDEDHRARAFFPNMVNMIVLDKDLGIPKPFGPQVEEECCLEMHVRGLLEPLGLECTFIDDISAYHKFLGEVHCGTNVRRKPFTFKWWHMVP

inhibition, inactive:
COc1ccc(C2C(C#N)=C(N)N(N(C)C)C3=C2C(=O)CCC3)cc1 (configuration not stated) 7%, Cc1nonc1OC(C)CNc1ccc([N+](=O)[O-])cc1 (configuration not stated) 27%, COC(=O)c1cc(C)nc(Sc2ccccc2N)n1 15%, COc1ccc(-c2cc(=O)[nH][nH]2)cc1 26%, CC(NC(=O)Nc1ccc(O)cc1)(C(F)(F)F)C(F)(F)F -10%, Cc1cc(N(C)NC(=S)Nc2ccccc2)nc(C)n1 17%, CCOc1nc(Nc2ccc(OC)cc2OC)nc(OCC)n1 12%, Cn1c(=O)c2c(ncn2CC(=O)Nc2nc(-c3ccccc3Cl)cs2)n(C)c1=O 45%, CCN(CC)c1cccc(OC2=NS(=O)(=O)c3ccccc32)c1 18%, COc1cccc2cc(C(=O)NC3CC(C)(C)NC(C)(C)C3)c(=O)oc12 3%, O=C(NCC1CCCO1)c1cc2c([nH]c3ccccc32)c(-c2ccc(F)cc2)n1 (configuration not stated) 20%, Cc1nn(-c2ccccc2)c(C)c1NC(=O)COc1ccc(Cl)cc1Cl 17%, COc1cccc(NC(=O)C2c3cc(OC)c(OC)cc3C(=O)N(C)C2c2cccnc2)c1 (configuration not stated) 26%, S=C(NCc1ccco1)Nc1cccc(Cl)c1 13%, N#CCCN(C(=O)Cn1nc(C(=O)O)c2ccccc2c1=O)c1ccccc1 10%, Cc1nn(-c2cccc(Cl)c2)c2c1C(c1cccnc1)C(C#N)=C(N)O2 (configuration not stated) 7%, Cc1ccc(C2CC(=O)Oc3cc(O)ccc32)cc1 (configuration not stated) 17%, COc1cccc(/C=C2/CN(C)CC3=C2OC(N)=C(C#N)C3c2cccc(OC)c2)c1 (configuration not stated) 20%, Cc1ccc(CNC(=O)c2ccc(C)c(S(=O)(=O)N3CCCCC3)c2)cc1 15%, COc1cccc(NC(=O)CN(C)C(=O)C23CC4CC(CC(Cl)(C4)C2)C3)c1 20%, Cc1c(NC(=O)CSc2nccn2C)c(=O)n(-c2ccccc2)n1C 3%, COc1ccc(CCNC(=O)COC(=O)c2ccc(C)s2)cc1 9%, Cc1cc2ncn(-c3ncccc3[N+](=O)[O-])c2cc1C -8%, CN(C)CCN(Cc1ccccc1)c1ccccn1 22%, COc1ccc(S(=O)(=O)Nc2ccccc2C)cc1 14%, CN(C)CCCNc1cn[nH]c(=O)c1Cl 20%, CC(=O)N(Cc1cc(=O)[nH]c2ccccc12)c1cccc(C)c1 21%, O=c1cc(-c2ccc(Cl)cc2)[nH][nH]1 -6%, Cc1c(C(=O)N2CCCCC2)c(S(=O)(=O)N2CCN(c3ccc(Cl)cc3)CC2)c(C)n1C 4%, N#CCCn1[nH]c(-c2ccccc2)cc1=O 39%, Cc1cc(-c2nnc(SCC(=O)Nc3ccc(F)c(F)c3)n2N)n[nH]1 6%, CCN(CC)S(=O)(=O)c1ccc(N=NC2=C(O)CCCC2=O)cc1 15%, Cc1oc2c(C)c(O)ccc2c(=O)c1-c1ccc2ccccc2n1 9%

What follows are molecules tested against Protein-arginine deiminase type-1 (Homo sapiens) (UniProt Q9ULC6) in the same assay as above. Settings: Recombinant PAD1-4, BAEE citrulline colorimetric absorbance; PAD1; at 10 µM; stronger effect = higher value.
Chain of Protein-arginine deiminase type-1 (Homo sapiens) (Q9ULC6 whole entry, looked up): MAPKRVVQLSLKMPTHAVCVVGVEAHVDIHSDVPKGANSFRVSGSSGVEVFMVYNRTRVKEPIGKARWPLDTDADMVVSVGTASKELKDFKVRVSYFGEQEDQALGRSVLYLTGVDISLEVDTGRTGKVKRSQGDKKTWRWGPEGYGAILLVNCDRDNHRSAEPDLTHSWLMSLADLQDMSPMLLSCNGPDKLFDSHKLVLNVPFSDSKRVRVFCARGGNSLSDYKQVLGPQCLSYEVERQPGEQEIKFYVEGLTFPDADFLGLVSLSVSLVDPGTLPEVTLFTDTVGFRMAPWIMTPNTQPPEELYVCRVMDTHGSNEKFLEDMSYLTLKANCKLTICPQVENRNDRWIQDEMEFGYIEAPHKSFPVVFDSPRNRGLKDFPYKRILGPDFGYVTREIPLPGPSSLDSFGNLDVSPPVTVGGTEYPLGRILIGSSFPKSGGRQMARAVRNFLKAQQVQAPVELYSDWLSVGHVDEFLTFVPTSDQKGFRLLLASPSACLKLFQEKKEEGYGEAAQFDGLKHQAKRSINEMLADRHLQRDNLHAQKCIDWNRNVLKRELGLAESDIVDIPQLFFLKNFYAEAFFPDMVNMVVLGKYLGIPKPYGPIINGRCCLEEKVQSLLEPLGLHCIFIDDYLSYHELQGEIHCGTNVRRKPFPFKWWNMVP

inhibition, inactive:
COc1ccc(C2C(C#N)=C(N)N(N(C)C)C3=C2C(=O)CCC3)cc1 (configuration not stated) 9%, Cc1nonc1OC(C)CNc1ccc([N+](=O)[O-])cc1 (configuration not stated) 8%, COC(=O)c1cc(C)nc(Sc2ccccc2N)n1 10%, COc1ccc(-c2cc(=O)[nH][nH]2)cc1 14%, CC(NC(=O)Nc1ccc(O)cc1)(C(F)(F)F)C(F)(F)F 8%, Cc1cc(N(C)NC(=S)Nc2ccccc2)nc(C)n1 5%, CCOc1nc(Nc2ccc(OC)cc2OC)nc(OCC)n1 27%, Cn1c(=O)c2c(ncn2CC(=O)Nc2nc(-c3ccccc3Cl)cs2)n(C)c1=O 8%, CCN(CC)c1cccc(OC2=NS(=O)(=O)c3ccccc32)c1 3%, COc1cccc2cc(C(=O)NC3CC(C)(C)NC(C)(C)C3)c(=O)oc12 -2%, O=C(NCC1CCCO1)c1cc2c([nH]c3ccccc32)c(-c2ccc(F)cc2)n1 (configuration not stated) 5%, Cc1nn(-c2ccccc2)c(C)c1NC(=O)COc1ccc(Cl)cc1Cl 2%, COc1cccc(NC(=O)C2c3cc(OC)c(OC)cc3C(=O)N(C)C2c2cccnc2)c1 (configuration not stated) 5%, S=C(NCc1ccco1)Nc1cccc(Cl)c1 17%, N#CCCN(C(=O)Cn1nc(C(=O)O)c2ccccc2c1=O)c1ccccc1 13%, Cc1nn(-c2cccc(Cl)c2)c2c1C(c1cccnc1)C(C#N)=C(N)O2 (configuration not stated) -3%, Cc1ccc(C2CC(=O)Oc3cc(O)ccc32)cc1 (configuration not stated) 7%, COc1cccc(/C=C2/CN(C)CC3=C2OC(N)=C(C#N)C3c2cccc(OC)c2)c1 (configuration not stated) 18%, Cc1ccc(CNC(=O)c2ccc(C)c(S(=O)(=O)N3CCCCC3)c2)cc1 21%, COc1cccc(NC(=O)CN(C)C(=O)C23CC4CC(CC(Cl)(C4)C2)C3)c1 6%, Cc1c(NC(=O)CSc2nccn2C)c(=O)n(-c2ccccc2)n1C 22%, COc1ccc(CCNC(=O)COC(=O)c2ccc(C)s2)cc1 5%, Cc1cc2ncn(-c3ncccc3[N+](=O)[O-])c2cc1C 25%, CN(C)CCN(Cc1ccccc1)c1ccccn1 -7%, COc1ccc(S(=O)(=O)Nc2ccccc2C)cc1 31%, CN(C)CCCNc1cn[nH]c(=O)c1Cl 27%, CC(=O)N(Cc1cc(=O)[nH]c2ccccc12)c1cccc(C)c1 4%, O=c1cc(-c2ccc(Cl)cc2)[nH][nH]1 1%, Cc1c(C(=O)N2CCCCC2)c(S(=O)(=O)N2CCN(c3ccc(Cl)cc3)CC2)c(C)n1C 6%, N#CCCn1[nH]c(-c2ccccc2)cc1=O 3%, Cc1cc(-c2nnc(SCC(=O)Nc3ccc(F)c(F)c3)n2N)n[nH]1 1%, CCN(CC)S(=O)(=O)c1ccc(N=NC2=C(O)CCCC2=O)cc1 0%, Cc1oc2c(C)c(O)ccc2c(=O)c1-c1ccc2ccccc2n1 17%
